# Laboratory results as given in PubChem BioAssay (NCI).
#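 At the GI50, growth is halved. TGI is the concentration that stops growth completely.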
# What was measured:
# Assay in all cases: inhibition of tumour cell growth, NCI panel, 384-well format
# 786-0 renal = system: 786-0 renal
# A498 renal = system: A498 renal
# A549 NSCLC = system: A549 NSCLC
# ACHN renal = system: ACHN renal
# BT-549 breast = system: BT-549 breast
# CAKI-1 renal = system: CAKI-1 renal
# CCRF-CEM leukemia = system: CCRF-CEM leukemia
# COLO 205 colon = system: COLO 205 colon
# DU-145 prostate = system: DU-145 prostate
# EKVX NSCLC = system: EKVX NSCLC
# HCC-2998 colon = system: HCC-2998 colon
# HCT-116 colon = system: HCT-116 colon
# HCT-15 colon = system: HCT-15 colon
# HL-60(TB) leukemia = system: HL-60(TB) leukemia
# HOP-62 NSCLC = system: HOP-62 NSCLC
# HOP-92 NSCLC = system: HOP-92 NSCLC
# HS 578T breast = system: HS 578T breast
# HT29 colon = system: HT29 colon
# IGROV1 ovarian = system: IGROV1 ovarian
# K-562 leukemia = system: K-562 leukemia
# KM12 colon = system: KM12 colon
# LOX IMVI melanoma = system: LOX IMVI melanoma
# M14 melanoma = system: M14 melanoma
# MALME-3M melanoma = system: MALME-3M melanoma
# MCF7 breast = system: MCF7 breast
# MDA-MB-231 breast = system: MDA-MB-231 breast
# MDA-MB-435 melanoma = system: MDA-MB-435 melanoma
# MDA-MB-468 breast = system: MDA-MB-468 breast
# MOLT-4 leukemia = system: MOLT-4 leukemia
# NCI-H226 lung = system: NCI-H226 lung
# NCI-H23 lung = system: NCI-H23 lung
# NCI-H322M lung = system: NCI-H322M lung
# NCI-H460 NSCLC = system: NCI-H460 NSCLC
# NCI-H522 lung = system: NCI-H522 lung
# NCI/ADR-RES ovarian = system: NCI/ADR-RES ovarian
# OVCAR-3 ovarian = system: OVCAR-3 ovarian
# OVCAR-4 ovarian = system: OVCAR-4 ovarian
# OVCAR-5 ovarian = system: OVCAR-5 ovarian
# PC-3 prostate = system: PC-3 prostate
# RPMI-8226 leukemia = system: RPMI-8226 leukemia
# RXF 393 renal = system: RXF 393 renal
# SF-268 CNS = system: SF-268 CNS
# SF-295 CNS = system: SF-295 CNS
# SF-539 CNS = system: SF-539 CNS
# SK-MEL-2 melanoma = system: SK-MEL-2 melanoma
# SK-MEL-28 melanoma = system: SK-MEL-28 melanoma
# SK-MEL-5 melanoma = system: SK-MEL-5 melanoma
# SK-OV-3 ovarian = system: SK-OV-3 ovarian
# SN12C renal = system: SN12C renal
# SNB-19 CNS = system: SNB-19 CNS
# SNB-75 CNS = system: SNB-75 CNS
# SR leukemia = system: SR leukemia
# SW-620 colon = system: SW-620 colon
# T-47D breast = system: T-47D breast
# TK-10 renal = system: TK-10 renal
# U251 glioblastoma = system: U251 glioblastoma
# UACC-257 melanoma = system: UACC-257 melanoma
# UACC-62 melanoma = system: UACC-62 melanoma
# UO-31 renal = system: UO-31 renal
smiles,measurement,setting,value
O=C(Nc1ccccc1/C=C/c1n[nH]c2ccccc12)c1ccccc1,GI50,786-0 renal,1820 nM
same,TGI,786-0 renal,3310 nM
same,GI50,A498 renal,1840 nM
same,TGI,A498 renal,3310 nM
same,GI50,A549 NSCLC,1740 nM
same,TGI,A549 NSCLC,3390 nM
same,GI50,ACHN renal,2630 nM
same,TGI,ACHN renal,8820 nM
same,GI50,BT-549 breast,1950 nM
same,TGI,BT-549 breast,3460 nM
same,GI50,CAKI-1 renal,2460 nM
same,TGI,CAKI-1 renal,9910 nM
same,GI50,CCRF-CEM leukemia,1580 nM
same,TGI,CCRF-CEM leukemia,2960 nM
same,GI50,COLO 205 colon,1300 nM
same,TGI,COLO 205 colon,2590 nM
same,GI50,DU-145 prostate,1470 nM
same,TGI,DU-145 prostate,3040 nM
same,GI50,EKVX NSCLC,1430 nM
same,TGI,EKVX NSCLC,3940 nM
same,GI50,HCC-2998 colon,1280 nM
same,TGI,HCC-2998 colon,2580 nM
same,GI50,HCT-116 colon,1490 nM
same,TGI,HCT-116 colon,2990 nM
same,GI50,HCT-15 colon,1460 nM
same,TGI,HCT-15 colon,2820 nM
same,GI50,HL-60(TB) leukemia,538 nM
same,TGI,HL-60(TB) leukemia,1880 nM
same,GI50,HOP-62 NSCLC,1550 nM
same,TGI,HOP-62 NSCLC,2950 nM
same,GI50,HOP-92 NSCLC,1520 nM
same,TGI,HOP-92 NSCLC,5050 nM
same,GI50,HS 578T breast,1650 nM
same,TGI,HS 578T breast,3110 nM
same,GI50,HT29 colon,1490 nM
same,TGI,HT29 colon,2850 nM
same,GI50,IGROV1 ovarian,5770 nM
same,TGI,IGROV1 ovarian,19600 nM
same,GI50,K-562 leukemia,1370 nM
same,TGI,K-562 leukemia,2770 nM
same,GI50,KM12 colon,40.8 nM
same,TGI,KM12 colon,1010 nM
same,GI50,LOX IMVI melanoma,1900 nM
same,TGI,LOX IMVI melanoma,3450 nM
same,GI50,M14 melanoma,3420 nM
same,TGI,M14 melanoma,14300 nM
same,GI50,MALME-3M melanoma,1290 nM
same,TGI,MALME-3M melanoma,2680 nM
same,GI50,MCF7 breast,514 nM
same,TGI,MCF7 breast,11400 nM
same,GI50,MDA-MB-231 breast,1480 nM
same,TGI,MDA-MB-231 breast,2990 nM
same,GI50,MDA-MB-435 melanoma,1530 nM
same,TGI,MDA-MB-435 melanoma,4460 nM
same,GI50,MDA-MB-468 breast,1640 nM
same,TGI,MDA-MB-468 breast,3650 nM
same,GI50,MOLT-4 leukemia,1650 nM
same,TGI,MOLT-4 leukemia,3350 nM
same,GI50,NCI-H226 lung,1480 nM
same,TGI,NCI-H226 lung,8440 nM
same,GI50,NCI-H23 lung,1160 nM
same,TGI,NCI-H23 lung,12400 nM
same,GI50,NCI-H322M lung,1840 nM
same,TGI,NCI-H322M lung,3970 nM
same,GI50,NCI-H460 NSCLC,1480 nM
same,TGI,NCI-H460 NSCLC,2900 nM
same,GI50,NCI-H522 lung,2360 nM
same,TGI,NCI-H522 lung,8590 nM
same,GI50,NCI/ADR-RES ovarian,1990 nM
same,TGI,NCI/ADR-RES ovarian,4430 nM
same,GI50,OVCAR-3 ovarian,1390 nM
same,TGI,OVCAR-3 ovarian,2930 nM
same,GI50,OVCAR-4 ovarian,4220 nM
same,TGI,OVCAR-4 ovarian,17200 nM
same,GI50,OVCAR-5 ovarian,1400 nM
same,TGI,OVCAR-5 ovarian,3330 nM
same,GI50,PC-3 prostate,1450 nM
same,TGI,PC-3 prostate,2790 nM
same,GI50,RPMI-8226 leukemia,1560 nM
same,TGI,RPMI-8226 leukemia,2970 nM
same,GI50,RXF 393 renal,2930 nM
same,TGI,RXF 393 renal,8110 nM
same,GI50,SF-268 CNS,1710 nM
same,TGI,SF-268 CNS,3260 nM
same,GI50,SF-295 CNS,1630 nM
same,TGI,SF-295 CNS,3000 nM
same,GI50,SF-539 CNS,2040 nM
same,TGI,SF-539 CNS,4760 nM
same,GI50,SK-MEL-2 melanoma,3880 nM
same,TGI,SK-MEL-2 melanoma,5810 nM
same,GI50,SK-MEL-28 melanoma,2370 nM
same,TGI,SK-MEL-28 melanoma,8160 nM
same,GI50,SK-MEL-5 melanoma,1560 nM
same,TGI,SK-MEL-5 melanoma,6100 nM
same,GI50,SK-OV-3 ovarian,2870 nM
same,TGI,SK-OV-3 ovarian,11600 nM
same,GI50,SN12C renal,1530 nM
same,TGI,SN12C renal,2900 nM
same,GI50,SNB-19 CNS,1980 nM
same,TGI,SNB-19 CNS,4380 nM
same,GI50,SNB-75 CNS,2160 nM
same,TGI,SNB-75 CNS,4810 nM
same,GI50,SR leukemia,1230 nM
same,TGI,SR leukemia,2510 nM
same,GI50,SW-620 colon,1870 nM
same,TGI,SW-620 colon,5300 nM
same,GI50,T-47D breast,1900 nM
same,TGI,T-47D breast,4050 nM
same,GI50,TK-10 renal,1500 nM
same,TGI,TK-10 renal,3140 nM
same,GI50,U251 glioblastoma,1550 nM
same,TGI,U251 glioblastoma,2910 nM
same,GI50,UACC-257 melanoma,1940 nM
same,TGI,UACC-257 melanoma,4300 nM
same,GI50,UACC-62 melanoma,1890 nM
same,TGI,UACC-62 melanoma,3940 nM
same,GI50,UO-31 renal,10400 nM
same,TGI,UO-31 renal,22300 nM
